Laboratory results published in patent publication US5180720A, “2- and 3-alkoxy or hydroxy-8-substituted-dibenz[b,f]-[1,4]oxazepine-10(11H)-carboxylic acid, substituted hydrazides and methods for treating pain” (G. D. Searle & Co., priority 1991, dated 1993).
Entries after “also recorded” stand apart in the source; their conditions may differ.

Tests used:
mice = experiment: PBQ Writhing Assay (analgesic activity); type: in vivo, mouse (Charles River male albino mice); conditions: for PBQ writhing assay, I.G. (activity): 30 mg/kg i.g.; for rank order of potency in the Writhing Assay: PBQ writhing; for PBQ writhing assay, S.C. (activity): 30 mg/kg s.c.
Description: The Writhing Assay is one of the most widely-used experimental procedures for measuring the analgesic activity of different narcotic and nonnarcotic analgesic agents, and involves the continuous, chemically-induced pain of visceral origin to an animal, such as a mouse or rat. [Gyires et al., Arch. int. Pharmacodyn, 267, 131-140 (1984); C. Vander Wende et al., Fed. Proc., 15, 494 (1956); Koster et al., Fed. Proc., 18, 412 (1959); and Witken et al., J. Pharmacol. exp. Ther., 133, 400-408 (1961).] Chemicals which may be used to induce this pain include phenylbenzoquinone (PBQ) and acetic acid. As a result of the chemical irritation to the animal, a characteristic stretching and writhing of the animal (dorsiflexion of the animal's back, extension of its hindlimbs and the strong contraction of its abdominal musculature) will generally occur. […] Drugs which reduce the number of writhes of the animal appear to restore the normal nociceptive threshold of the animal.
Charles River male albino mice, weighing 20 to 30 grams were used in this assay.
Thirty minutes after subcutaneous or intragastric administration to ten mice of 30 mg per kilogram of body weight of a compound of the present invention ("test compound"), […] per 10 g of body weight of a 0.025% w/v solution of PBQ was injected intraperitoneally into each mouse. Ten mice which were given saline in place of a test compound of the invention were used as a control group.
Five minutes later, each mouse was individually placed into a glass beaker for observation, and the number of writhes occurring during the following ten-minute period was counted.
A test compound was considered to have produced analgesia in a mouse if, in accordance with the conditions set forth above, and under the test criteria employed for this assay, after the administration of 30 mg per kilogram of body weight of a compound of the present invention to the mouse, the number of writhes elicited by a mouse injected with PBQ was equal to, or less than, one-half the median number of writhes recorded for the saline-treated control group of mice that day, as described by Taber in "Predictive Value of Analgesic Assays in Mice and Rats," Advances in Biochemical Psychopharmacology, 8, 191 (1974).
The standard initial screening dose of a test compound employed in this assay was 30 mg per kilogram of body weight for both routes of administration. If this initial screening dose of the test compound produced analgesia in seven out of ten mice, then the effect of additional doses of the test compound on the writhing response was evaluated, and then the ED50 dose was generally calculated. (The slopes of the dose-response curves for all test compounds analyzed were compared as described by Tallarida and Murray, Manual of Pharmacologic Calculations, Page 11 (Springer Verlag, N.Y., 1981)).

[1] = system: stimulant actions of prostaglandins on isolated smooth muscle preparations; conditions: cited from earlier work
[2] = system: micturition reflex in rats; conditions: urethane-anesthetized rats; cited from earlier work
[3] = system: prostaglandins of the E series; conditions: cited from earlier work
[4] = target: T1, prostaglandin E2-induced contractions of segments of guinea pig ileum (Cavia porcellus, UniProt A0A286XHJ6); experiment: Prostaglandin (PGE) Antagonism Assay, guinea pig ileum; type: cell-based; set-up: key to PGE antagonism in guinea pig ileum (activity): Active: A concentration of the test compound was determined to be "active" if it produced a dose ratio significantly greater than that obtained in a series of blank treatments
T1 construct: Segments of ileum about 2 cm long were then cut and mounted in a 10-mL tissue bath; from tissue; host or cells: ileum segments of male albino guinea pigs
T1 sequence (A0A286XHJ6 1-405): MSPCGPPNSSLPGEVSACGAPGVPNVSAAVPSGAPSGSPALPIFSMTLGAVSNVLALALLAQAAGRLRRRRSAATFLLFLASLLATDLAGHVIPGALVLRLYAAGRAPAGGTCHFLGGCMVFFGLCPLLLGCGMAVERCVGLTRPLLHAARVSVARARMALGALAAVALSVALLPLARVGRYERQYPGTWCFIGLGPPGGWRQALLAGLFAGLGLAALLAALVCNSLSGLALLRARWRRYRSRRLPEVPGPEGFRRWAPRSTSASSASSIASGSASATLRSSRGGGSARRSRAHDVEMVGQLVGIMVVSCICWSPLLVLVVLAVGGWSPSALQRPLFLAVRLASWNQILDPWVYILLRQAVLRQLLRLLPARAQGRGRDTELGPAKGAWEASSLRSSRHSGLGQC
Procedure: In order to determine the effectiveness of compounds of the invention ("test compounds") as prostaglandin E2 antagonists, a prostaglandin antagonism assay was conducted, as described below, to determine the ability of these compounds to inhibit prostaglandin E2 -induced contractions of segments of guinea pig ileum.
Male albino guinea pigs weighing 200 to 500 grams were sacrificed by cervical dislocation.
The ileums were then quickly removed from the guinea pigs and placed in a modified Tyrode solution, a solution which is known to those of skill in the art, containing one-half of the usual amount of magnesium ions.
Segments of ileum about 2 cm long were then cut and mounted in a 10-mL tissue bath containing the modified Tyrode solution. The solution was maintained at 37° C. and aerated with a gaseous mixture of 95% oxygen and 5% carbon dioxide.
Submaximal contractions of the ileum segments were then generated by injecting prostaglandin E2 into the bath, and detected isotonically. Data for a control prostaglandin E2 dose response curve plotting concentration of prostaglandin E2 versus number of contractions generated was then obtained by experimentally adjusting the dose of the prostaglandin E2 being injected into the tissue bath, in a manner known by those of skill in the art.
Solutions or suspensions containing an initial amount of a test compound in modified Tyrode solution ("test solutions/ suspensions") were then separately substituted for the tissue bath. […]
If the initial concentration of a test compound was determined to be "active," then varying concentrations of the test compound were then assayed.
The pA2 value (a statistical constant which is a common measure of expressing the potency of a particular drug as a competitive antagonist) was then calculated for the test compound by schild plot calculations, as described by H.O. Schild, "pA, A New Scale for the Measurement of Drug Antagonism," Br. J. Pharmacol, 2, 189 (1947), according to the following mathematical formula: […]
to quantitate the effectiveness of the test compound as a prostaglandin E2 antagonist.

In the case of `CCS(=O)(=O)CCC(=O)NNC(=O)N1Cc2ccc(OC)cc2Oc2ccc(Cl)cc21` [Example 7, 8-chloro-3-methoxydibenz[b,f][1,4]oxazepine-10(11H)-carboxylic acid, 2-[3-(ethylsulfonyl)-1-oxopropyl]hydrazide], the “PBQ writhing assay, I.G. (activity)” value (mice) is reported as “Active” and the “rank order of potency in the Writhing Assay” value (from here on “rank order of potency”) (mice) is reported as “Example 4>Example 8>Example 7>Example 3”.
In the case of `CC(=O)NNC(=O)N1Cc2ccccc2Oc2ccc(Cl)cc21` [SC-19220], the “inhibition of stimulant actions of prostaglandins” value [1] is listed as “inhibit the stimulant actions of prostaglandins on isolated smooth muscle preparations”, the bladder capacity [2] is listed as “increased the bladder capacity” and the “voiding efficiency of micturition” value [2] is listed as “reduced the voiding efficiency of micturition”.
For `CC(=O)NNC(=O)N1Cc2ccccc2Oc2ccc(Cl)cc21` [8-chlorodibenz[b,f][1,4]-oxazepine-10(11H-carboxylic acid, 2-acetylhydrazide], the “antagonism of prostaglandins of the E series” value [3] is listed as “competitive antagonists of prostaglandins of the E series”.
In the case of `CCS(=O)(=O)CCC(=O)NNC(=O)N1Cc2cc(OC)ccc2Oc2ccc(Cl)cc21` [Example 3, 8-chloro-2-methoxydibenz[b,f][1,4]oxazepine-10(11H)-carboxylic acid, 2-[3-(ethylsulfonyl)-1-oxopropyl]hydrazide], the “rank order of potency” value (mice) is reported as “Example 4>Example 8>Example 7>Example 3”.
In the case of `O=C(Cc1ccccc1)NNC(=O)N1Cc2ccccc2Oc2ccc(Cl)cc21` [SC-18637], the “inhibition of stimulant actions of prostaglandins” value [1] is given as “inhibit the stimulant actions of prostaglandins on isolated smooth muscle preparations”.
For `O=C(CCCCCl)NNC(=O)N1Cc2ccccc2Oc2ccc(Cl)cc21` [8-chlorodibenz[b,f][1,4]-oxazepine-10(11H)-carboxylic acid, 2-(5-chloro-1-oxopentyl)hydrazide], the “antagonism of prostaglandins of the E series” value [3] is given as “competitive antagonists of prostaglandins of the E series”.
For `CCS(=O)(=O)CCC(=O)NNC(=O)N1Cc2cc(O)ccc2Oc2ccc(Cl)cc21` [Example 4, 8-chloro-2-hydroxydibenz[b,f][1,4]oxazepine-10(11H)-carboxylic acid, 2-[3-(ethylsulfonyl)-1-oxopropyl]hydrazide], the “PBQ writhing assay, I.G. (activity)” value (mice) was “Active”, the “PBQ writhing assay, S.C. (activity)” value (mice) was “Active” and the ED50 (mice; Mus musculus, po, 0.5 h, intragastric, read-out: PBQ writhing assay ED50, I.G.) was 12.6 mg/kg. For the same compound, the “rank order of potency” value (mice) was “Example 4>Example 8>Example 7>Example 3; also recorded: the most potent compound of the invention tested in this assay”, the “activity as prostaglandin E2 antagonist, in words” value ([4]; guinea pig ileum) was “exhibits activity as a prostaglandin E2 antagonist” and the “PGE antagonism in guinea pig ileum (activity)” value ([4]; guinea pig ileum segments, 37° C.) was “Active”. The Kb ([4]; guinea pig ileum segments, 37° C., Schild plot, read-out: PGE antagonism in guinea pig ileum (pA2) (converted)) was 3.98 µM.
With `CCS(=O)(=O)CCC(=O)NNC(=O)N1Cc2ccc(O)cc2Oc2ccc(Cl)cc21` [Example 8] the “PBQ writhing assay, I.G. (activity)” value (mice) was “Active”, the “PBQ writhing assay, S.C. (activity)” value (mice) was “Active” and the “rank order of potency” value (mice) was “Example 4>Example 8>Example 7>Example 3”.
